Test results taken from patent publication EP0405998A1, “Antibiotic agents” (priority 1989, dated 1991).
In brackets after ≈: the same amount, converted by molar mass. Where two headings read alike, the source gives them in different places.

What was measured:
Pneumocystis carinii = Pneumocystis carinii infection in immunosuppressed mice, lung cyst count; type: in vivo, C3H/He mice; conditions: 2.0 mg/kg intraperitoneally twice daily, lung tissue
Description: In a representative study on the effectiveness of Compound IB, ten male C3H/He mice, weighing 22-24 gms. each, were immunosuppressed by the addition of dexamethasone to the drinking water (8.0 mg/L) for six weeks to induce the development of P. carinii infections. To enhance the infection the mice were also maintained on a low protein diet. At the beginning of the seventh week the mice were divided into two groups. Both groups continued to receive dexamethasone in the drinking water and low protein diet for the remainder of the study. Mice in Group I were injected intraperitoneally twice daily with 0.5 ml of a 10% dimethylsulfoxide (DMSO) solution as a vehicle control. Mice in Group II were injected intraperitoneally twice daily with 0.5 ml of sterile water containing 0.05 mg of compound IB (dissolved in DMSO, final concentration of DMSO is 10%, actual dose was 2.0 mg/kg). […]
At the end of the treatment period (a total of eight weeks immunosuppression) the animals were sacrificed and the lung tissue removed. The tissue was then processed to determine the number of cysts for each animal. Compound IB reduced the number of cysts by 84% as compared to the control animals. […]

Candida parapsilosis = test: microbroth dilution assay, minimum fungicidal concentration (MFC); type: cell-based; conditions: Lodderomyces parapsilosis, YNBD medium
Description: (§1) The activity may be seen in a microbroth dilution assay employing as medium a Yeast Nitrogen Base (Difco) with 1% dextrose (YNBD) as the medium. In carrying out the assay, Compound IB, IC-1 and IC-2 were solubilized in 10 percent dimethyl sulfoxide (DMSO) and diluted to 2560 µg/ml. The compounds were then diluted to 256 µg/ml in YNBD. 0.15 ml of the suspension was dispensed to the top row of a 96-well plate (each well containing 0.15 ml of YNDB) resulting in a drug concentration of 128 µg/ml. Two-fold dilutions were then made from the top row to obtain final drug concentrations ranging from 128 to 0.06 µg/ml.
(§2) The yeast cultures, maintained on Sabouraud dextrose agar were transferred to YM broth (Difco) and incubated overnight at 35°C with shaking (250 rpm). After incubation, each culture was diluted in sterile water to yield a final concentration of 1-5 x 10⁶ colony forming units (CFU)/ml.
(§3) 96-well microplates were inoculated using a MIC-2000 (Dynatech) which delivers 1.5 µl per well yielding a final inoculum per well of 1.5-7.5 x 10³ cells. The microplates were incubated at 35°C for 24 hours. The minimum inhibitory concentrations (MICs) were recorded as the lowest concentrations of drug showing no visible growth.
(§4) After recording the MIC, the plates were shaken to resuspend the cells. Thereafter, […] samples from the wells in the 96-well microplate were transferred to a single well tray containing Sabouraud dextrose agar. The inoculated trays were incubated 24 hours at 28°C and then read. The MFC is defined as the lowest concentration of drug showing no growth or less than 4 colonies per spot.

Candida albicans = test: as above; type: cell-based
Description: as §1, §2, §3, §4

Candida tropicalis = test: as above; type: cell-based; conditions: read-out: Minimum Fungicidal Concentration
Description: as §1, §2, §3, §4

red blood cells = test: titration/hemolysis assay, red blood cell lysis; type: cell-based, CD-1 female mice; conditions: highest drug concentration that did not lyse the red blood cells; 25°C, two hours; 5 percent dextrose
Description: Compound I or a component thereof has potential as a replacement for a known antifungal agent which while effective as an antifungal agent is of limited utility for having lytic effect on red blood cells at low dose levels. This property was discovered in a standard titration/hemolysis assay using fresh blood drawn from CD-1 female mice. In a representative assay, a concentration of Compound IB in the range of from 0.39 to 400 µg/ml in 5 percent dextrose and a drug free control were employed.
In carrying out the determination, the assay tubes prepared by mixing together 2 milliliters of appropriate drug dilution and 0.5 milliliter of red blood cell suspension were gently shaken to mix the contents and then the tubes were incubated at 25°C for two hours. At the end of this time, the tubes were examined visually for complete or partial red blood cell hemolysis and compared to a drug free control. […] The MLC for Compound IB was greater than 400 µg/ml.

“1-[N²-(10,12-dimethyl-1-oxotetradecyl)ornithine]-4-[4-(4-hydroxyphenyl)-2-aminobutanoic acid]-5-(3-hydroxyglutamine)echinocandin B [Compound IC]” was tested, and the “reduced the number of cysts as compared to the control animals” value (Pneumocystis carinii; treatment period one week) was 66%.
In the case of `CCC(C)CC(C)CCCCCCCCC(=O)NC1CCC(O)NC(=O)C2C(O)C(C)CN2C(=O)C(C(O)CC(N)=O)NC(=O)C(CCc2ccc(O)cc2)NC(=O)C2CC(O)CN2C(=O)C(C(C)O)NC1=O` (stereo not shown) [Compound IB, 1-[5-hydroxy N²-(10, 12-dimethyl-1-oxotetra-decyl)-ornithine]-4-[4-(4-hydroxyphenyl)-2-amino-butanoic acid]-5-(3-hydroxyglutamine) echinocandin B], the MFC (Candida parapsilosis; read-out: Minimum Fungicidal Concentration, Candida parapsilosis MY 1009) is reported as 16 µg/mL (≈ 15.5 µM), the MFC (Candida parapsilosis; read-out: Minimum Fungicidal Concentration, Candida parapsilosis MY 1010) is reported as 8 µg/mL (≈ 7.76 µM) and the MFC (Candida albicans; read-out: Minimum Fungicidal Concentration, Candida albicans MY 1028, YNBD medium) is reported as 1 µg/mL (≈ 0.97 µM). The MFC (Candida albicans; read-out: Minimum Fungicidal Concentration, Candida albicans MY 1055, YNBD medium) was 0.5 µg/mL (≈ 0.485 µM), the MFC (Candida albicans; read-out: Minimum Fungicidal Concentration, Candida albicans MY 1208, YNBD medium) was 2 µg/mL (≈ 1.94 µM) and the MFC (Candida albicans; read-out: Minimum Fungicidal Concentration, Candida albicans MY 1585, YNBD medium) was 1 µg/mL (≈ 0.97 µM). The MFC (Candida albicans; read-out: Minimum Fungicidal Concentration, Candida albicans MY 1750, YNBD medium) was 1 µg/mL (≈ 0.97 µM), the MFC (Candida albicans; read-out: Minimum Fungicidal Concentration, Candida albicans MY 1783, YNBD medium) was 2 µg/mL (≈ 1.94 µM) and the MFC (Candida tropicalis) was 2 µg/mL (≈ 1.94 µM). The “reduced the number of cysts as compared to the control animals” value (Pneumocystis carinii; treatment period two weeks) was 84% and the “minimum lytic concentration (MLC)” value (red blood cells) was “greater than 400 µg/ml”.
For `C[C@@H]1[C@H](O)[C@@H](C)/C=C/C=C/C=C/C=C/C=C/C=C/C=C/[C@H](O[C@@H]2O[C@H](C)[C@@H](O)[C@H](N)[C@@H]2O)C[C@@H]2O[C@](O)(C[C@@H](O)C[C@@H](O)[C@H](O)CC[C@@H](O)C[C@@H](O)CC(=O)O[C@H]1C)C[C@H](O)[C@H]2C(=O)O` [amphotericin B, reference compound], the “minimum lytic concentration (MLC)” value (red blood cells) was 12.5 µg/mL.
